Key:
Assay in all cases: KINOMEscan competition binding
Conditions in all cases: compound 10.0 µM
[1] = target: ACVR1 (human) (UniProt Q04771)
[2] = target: AURKB (human) (UniProt Q96GD4)
[3] = target: BMP2K (human) (UniProt Q9NSY1)
[4] = target: BMPR1B (human) (UniProt O00238)
[5] = target: BRSK2 (human) (UniProt Q8IWQ3)
[6] = target: CHUK (human) (UniProt O15111)
[7] = target: CSNK1D (human) (UniProt P48730)
[8] = target: CSNK1G1 (human) (UniProt Q9HCP0)
[9] = target: CSNK1G3 (human) (UniProt Q9Y6M4)
[10] = target: DMPK (human) (UniProt Q09013)
[11] = test system: FLT3 (human), P36888 [D835H]
[12] = test system: FLT3 (human), P36888 [D835Y]
[13] = test system: FLT3 (human), P36888 [ITD]
[14] = test system: FLT3 (human), P36888 [N841I]
[15] = target: GSK3A (human) (UniProt P49840)
[16] = test system: KIT (human), P10721 [V559D]
[17] = target: MAP4K2 (human) (UniProt Q12851)
[18] = target: MAP4K4 (human) (UniProt O95819)
[19] = target: MAPK8 (human) (UniProt P45983)
[20] = target: MYLK3 (human) (UniProt Q32MK0)
[21] = target: MYLK4 (human) (UniProt Q86YV6)
[22] = target: PDGFRB (human) (UniProt P09619)
[23] = target: PHKG2 (human) (UniProt P15735)
[24] = target: PIM2 (human) (UniProt Q9P1W9)
[25] = target: PIP4K2B (human) (UniProt P78356)
[26] = target: PIP5K1A (human) (UniProt Q99755)
[27] = target: PLK4 (human) (UniProt O00444)
[28] = target: PRKD3 (human) (UniProt O94806)
[29] = target: RIOK3 (human) (UniProt O14730)
[30] = target: RIPK2 (human) (UniProt O43353)
[31] = target: RPS6KA2 KD2 (human) (UniProt Q15349)
[32] = target: RPS6KA6 KD2 (human) (UniProt Q9UK32)
[33] = target: SRPK2 (human) (UniProt P78362)
[34] = target: SRPK3 (human) (UniProt Q9UPE1)
[35] = target: STK11 (human) (UniProt Q15831)
[36] = target: STK17A (human) (UniProt Q9UEE5)
[37] = target: STK24 (human) (UniProt Q9Y6E0)
[38] = target: STK33 (human) (UniProt Q9BYT3)
[39] = target: TAOK3 (human) (UniProt Q9H2K8)
[40] = target: TGFBR2 (human) (UniProt P37173)
[41] = target: TNK1 (human) (UniProt Q13470)
[42] = target: TTK (human) (UniProt P33981)

Sequence of RPS6KA2 KD2 (human) (Q15349 whole entry, looked up): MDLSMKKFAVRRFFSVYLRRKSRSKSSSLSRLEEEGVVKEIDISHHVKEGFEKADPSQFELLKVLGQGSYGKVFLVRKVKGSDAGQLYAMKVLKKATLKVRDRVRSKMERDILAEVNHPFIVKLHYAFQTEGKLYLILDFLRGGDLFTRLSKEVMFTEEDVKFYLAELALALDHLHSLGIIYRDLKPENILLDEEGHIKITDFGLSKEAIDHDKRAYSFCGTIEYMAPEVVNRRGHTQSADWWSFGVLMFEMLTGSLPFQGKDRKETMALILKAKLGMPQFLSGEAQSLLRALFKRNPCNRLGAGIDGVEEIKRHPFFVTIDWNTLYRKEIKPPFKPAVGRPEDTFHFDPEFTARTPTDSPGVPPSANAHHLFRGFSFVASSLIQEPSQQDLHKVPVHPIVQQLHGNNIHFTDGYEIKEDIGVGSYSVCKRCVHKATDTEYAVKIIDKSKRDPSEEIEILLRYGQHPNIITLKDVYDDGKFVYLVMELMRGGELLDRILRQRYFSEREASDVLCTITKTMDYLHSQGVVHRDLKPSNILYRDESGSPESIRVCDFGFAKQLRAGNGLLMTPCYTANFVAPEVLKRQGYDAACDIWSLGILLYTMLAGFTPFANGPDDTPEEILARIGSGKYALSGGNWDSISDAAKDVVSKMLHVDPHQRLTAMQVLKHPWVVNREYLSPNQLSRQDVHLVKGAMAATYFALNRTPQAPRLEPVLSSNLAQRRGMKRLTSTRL
Sequence of STK17A (human) (Q9UEE5 whole entry, looked up): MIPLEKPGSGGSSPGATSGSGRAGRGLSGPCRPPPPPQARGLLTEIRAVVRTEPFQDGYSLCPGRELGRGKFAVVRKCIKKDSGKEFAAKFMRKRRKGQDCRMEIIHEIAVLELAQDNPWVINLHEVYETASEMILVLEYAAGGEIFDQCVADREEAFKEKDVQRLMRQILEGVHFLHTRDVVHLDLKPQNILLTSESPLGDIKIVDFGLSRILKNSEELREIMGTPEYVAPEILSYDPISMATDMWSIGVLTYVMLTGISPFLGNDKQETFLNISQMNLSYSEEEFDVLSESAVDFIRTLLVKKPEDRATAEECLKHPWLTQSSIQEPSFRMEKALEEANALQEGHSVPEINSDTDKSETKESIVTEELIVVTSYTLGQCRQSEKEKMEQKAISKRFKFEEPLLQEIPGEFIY
Sequence of BMPR1B (human) (O00238 whole entry, looked up): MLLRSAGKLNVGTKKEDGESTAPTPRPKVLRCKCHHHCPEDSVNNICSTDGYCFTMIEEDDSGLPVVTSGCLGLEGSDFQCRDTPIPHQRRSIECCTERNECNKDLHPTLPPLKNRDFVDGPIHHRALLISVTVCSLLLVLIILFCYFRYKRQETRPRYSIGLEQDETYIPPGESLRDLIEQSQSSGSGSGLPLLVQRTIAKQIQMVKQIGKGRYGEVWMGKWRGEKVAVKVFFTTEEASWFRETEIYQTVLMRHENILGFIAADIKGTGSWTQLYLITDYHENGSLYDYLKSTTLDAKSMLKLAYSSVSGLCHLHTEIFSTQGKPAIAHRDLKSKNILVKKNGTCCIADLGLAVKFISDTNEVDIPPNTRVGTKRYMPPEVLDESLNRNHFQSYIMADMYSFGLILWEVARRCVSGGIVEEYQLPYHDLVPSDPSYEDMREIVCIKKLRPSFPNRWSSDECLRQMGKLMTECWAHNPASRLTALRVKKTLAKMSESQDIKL
Sequence of MYLK4 (human) (Q86YV6 whole entry, looked up): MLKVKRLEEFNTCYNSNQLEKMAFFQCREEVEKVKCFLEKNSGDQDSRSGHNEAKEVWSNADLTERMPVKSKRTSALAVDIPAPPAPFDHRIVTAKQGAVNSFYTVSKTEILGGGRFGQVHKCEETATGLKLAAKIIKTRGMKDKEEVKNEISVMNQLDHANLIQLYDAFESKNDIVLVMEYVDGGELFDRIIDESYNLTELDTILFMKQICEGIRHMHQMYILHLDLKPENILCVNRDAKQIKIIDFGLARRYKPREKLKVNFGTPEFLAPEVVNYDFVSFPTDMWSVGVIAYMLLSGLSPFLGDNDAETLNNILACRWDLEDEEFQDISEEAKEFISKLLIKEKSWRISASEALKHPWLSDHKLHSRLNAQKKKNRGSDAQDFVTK
Sequence of PIM2 (human) (Q9P1W9 whole entry, looked up): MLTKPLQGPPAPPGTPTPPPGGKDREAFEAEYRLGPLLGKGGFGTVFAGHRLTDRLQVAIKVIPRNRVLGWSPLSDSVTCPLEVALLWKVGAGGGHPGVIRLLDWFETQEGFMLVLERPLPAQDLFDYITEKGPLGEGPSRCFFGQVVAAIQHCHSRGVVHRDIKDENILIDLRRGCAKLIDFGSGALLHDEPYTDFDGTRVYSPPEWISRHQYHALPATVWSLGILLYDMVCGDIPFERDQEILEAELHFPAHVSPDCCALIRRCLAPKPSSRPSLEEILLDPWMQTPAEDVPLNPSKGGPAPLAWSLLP
Sequence of CSNK1G1 (human) (Q9HCP0 whole entry, looked up): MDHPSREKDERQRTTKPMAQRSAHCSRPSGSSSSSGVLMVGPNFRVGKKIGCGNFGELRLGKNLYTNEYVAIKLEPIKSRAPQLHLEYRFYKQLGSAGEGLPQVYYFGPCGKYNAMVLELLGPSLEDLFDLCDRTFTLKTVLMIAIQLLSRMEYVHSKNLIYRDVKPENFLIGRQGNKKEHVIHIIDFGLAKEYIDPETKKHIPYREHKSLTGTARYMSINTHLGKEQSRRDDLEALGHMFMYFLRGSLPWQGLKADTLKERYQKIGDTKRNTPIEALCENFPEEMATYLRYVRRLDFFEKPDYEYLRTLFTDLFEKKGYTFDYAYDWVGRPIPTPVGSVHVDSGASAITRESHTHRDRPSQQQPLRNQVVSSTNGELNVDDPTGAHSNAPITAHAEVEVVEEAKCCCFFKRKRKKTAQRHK
Sequence of PRKD3 (human) (O94806 whole entry, looked up): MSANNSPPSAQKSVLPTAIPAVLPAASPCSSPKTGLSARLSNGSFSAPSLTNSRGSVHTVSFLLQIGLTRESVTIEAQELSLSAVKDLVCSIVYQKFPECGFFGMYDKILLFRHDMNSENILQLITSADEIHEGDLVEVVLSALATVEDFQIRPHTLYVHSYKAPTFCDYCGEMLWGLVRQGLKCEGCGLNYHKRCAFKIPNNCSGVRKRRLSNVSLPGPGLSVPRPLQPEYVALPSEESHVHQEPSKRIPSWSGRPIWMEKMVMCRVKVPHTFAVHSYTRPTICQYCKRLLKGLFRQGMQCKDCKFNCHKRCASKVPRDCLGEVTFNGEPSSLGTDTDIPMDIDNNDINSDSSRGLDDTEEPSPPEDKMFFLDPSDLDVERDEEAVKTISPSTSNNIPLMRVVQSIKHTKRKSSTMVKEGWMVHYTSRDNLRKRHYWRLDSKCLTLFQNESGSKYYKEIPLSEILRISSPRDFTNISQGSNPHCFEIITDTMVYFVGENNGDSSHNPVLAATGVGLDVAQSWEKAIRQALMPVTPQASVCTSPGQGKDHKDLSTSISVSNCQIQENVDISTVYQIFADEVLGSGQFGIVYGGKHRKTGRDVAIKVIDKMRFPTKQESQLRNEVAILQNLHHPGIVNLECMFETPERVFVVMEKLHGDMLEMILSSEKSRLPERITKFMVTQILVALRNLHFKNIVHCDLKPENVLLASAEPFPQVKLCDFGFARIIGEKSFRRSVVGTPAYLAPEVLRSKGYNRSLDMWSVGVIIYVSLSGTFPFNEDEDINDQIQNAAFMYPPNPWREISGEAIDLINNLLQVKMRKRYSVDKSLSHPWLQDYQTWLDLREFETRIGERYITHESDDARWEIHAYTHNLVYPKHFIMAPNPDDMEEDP
Sequence of BRSK2 (human) (Q8IWQ3 whole entry, looked up): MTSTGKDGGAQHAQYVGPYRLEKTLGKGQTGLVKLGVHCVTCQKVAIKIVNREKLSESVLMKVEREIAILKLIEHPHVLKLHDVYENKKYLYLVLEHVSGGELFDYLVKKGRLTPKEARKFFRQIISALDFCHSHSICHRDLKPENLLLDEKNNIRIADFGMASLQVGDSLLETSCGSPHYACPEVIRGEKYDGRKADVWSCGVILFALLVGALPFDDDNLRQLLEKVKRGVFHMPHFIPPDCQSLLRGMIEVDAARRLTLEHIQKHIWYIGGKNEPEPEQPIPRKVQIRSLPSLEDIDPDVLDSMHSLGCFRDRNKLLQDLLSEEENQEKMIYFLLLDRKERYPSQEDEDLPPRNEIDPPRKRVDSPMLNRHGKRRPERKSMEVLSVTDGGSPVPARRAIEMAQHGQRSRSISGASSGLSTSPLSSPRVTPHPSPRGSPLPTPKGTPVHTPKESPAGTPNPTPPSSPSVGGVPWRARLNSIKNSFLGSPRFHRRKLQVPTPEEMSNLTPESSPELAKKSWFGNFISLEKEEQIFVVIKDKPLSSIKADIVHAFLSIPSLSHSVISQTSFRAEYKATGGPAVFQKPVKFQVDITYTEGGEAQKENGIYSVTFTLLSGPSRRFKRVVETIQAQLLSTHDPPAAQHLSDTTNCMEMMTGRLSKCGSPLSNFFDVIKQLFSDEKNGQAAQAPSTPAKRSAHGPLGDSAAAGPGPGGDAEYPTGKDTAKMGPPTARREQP
Sequence of RIPK2 (human) (O43353 whole entry, looked up): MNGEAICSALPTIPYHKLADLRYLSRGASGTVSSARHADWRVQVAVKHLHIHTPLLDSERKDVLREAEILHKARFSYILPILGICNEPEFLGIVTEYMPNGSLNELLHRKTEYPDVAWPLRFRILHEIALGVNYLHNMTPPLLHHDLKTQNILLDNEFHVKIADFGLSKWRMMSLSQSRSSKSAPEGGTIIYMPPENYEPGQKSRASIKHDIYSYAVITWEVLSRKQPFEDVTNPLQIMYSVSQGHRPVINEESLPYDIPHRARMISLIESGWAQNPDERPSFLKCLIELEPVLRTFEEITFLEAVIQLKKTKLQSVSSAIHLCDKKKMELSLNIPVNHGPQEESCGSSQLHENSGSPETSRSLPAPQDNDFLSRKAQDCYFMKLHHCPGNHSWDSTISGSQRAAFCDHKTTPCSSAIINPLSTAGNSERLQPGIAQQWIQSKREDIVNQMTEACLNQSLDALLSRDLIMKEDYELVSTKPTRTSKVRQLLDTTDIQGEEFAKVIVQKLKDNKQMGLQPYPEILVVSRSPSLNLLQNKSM

What does the source list for COc1cc(N2CCN(C)CC2)ccc1Nc1ncc2c(n1)N(C)c1sccc1C(=O)N2C?
kinase still bound, per cent of control [1]: 94%; kinase still bound, per cent of control [2]: 56%; kinase still bound, per cent of control [3]: 98%; kinase still bound, per cent of control [4]: 91%; kinase still bound, per cent of control [5]: 100%; kinase still bound, per cent of control [6]: 46%; kinase still bound, per cent of control [7]: 81%; kinase still bound, per cent of control [8]: 89%; kinase still bound, per cent of control [9]: 82%; kinase still bound, per cent of control [10]: 100%; kinase still bound, per cent of control [11]: 80%; kinase still bound, per cent of control [12]: 74%; kinase still bound, per cent of control [13]: 99%; kinase still bound, per cent of control [14]: 78%; kinase still bound, per cent of control [15]: 100%; kinase still bound, per cent of control [16]: 71%; kinase still bound, per cent of control [17]: 96%; kinase still bound, per cent of control [18]: 99%; kinase still bound, per cent of control [19]: 86%; kinase still bound, per cent of control [20]: 86%; kinase still bound, per cent of control [21]: 100%; kinase still bound, per cent of control [22]: 51%; kinase still bound, per cent of control [23]: 46%; kinase still bound, per cent of control [24]: 86%; kinase still bound, per cent of control [25]: 89%; kinase still bound, per cent of control [26]: 65%; kinase still bound, per cent of control [27]: 9.9%; kinase still bound, per cent of control [28]: 5.8%; kinase still bound, per cent of control [29]: 52%; kinase still bound, per cent of control [30]: 92%; kinase still bound, per cent of control [31]: 15%; kinase still bound, per cent of control [32]: 6%; kinase still bound, per cent of control [33]: 100%; kinase still bound, per cent of control [34]: 67%; kinase still bound, per cent of control [35]: 90%; kinase still bound, per cent of control [36]: 96%; kinase still bound, per cent of control [37]: 72%; kinase still bound, per cent of control [38]: 1.2%; kinase still bound, per cent of control [39]: 13%; kinase still bound, per cent of control [40]: 94%; kinase still bound, per cent of control [41]: 7%; kinase still bound, per cent of control [42]: 13%
